Key:
Experiment in all cases: relative viability (nuclei count vs DMSO), 5 days (fraction); higher = more cells survive
COR-L 105 = system: COR-L 105
Method in brief: (§1)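 After 5 days of treatment, lung cancer cells in 1536-well plates were fixed and stained in a single step (final 0.05% Triton X-100, 1% formaldehyde, 1 ug/ml Hoechst) and their nuclei counted on 4× images. Treatment had been applied by pin tool the day after seeding as one drug alone or as a fixed anchor-drug dose with five library-drug doses (not always all listed) in √10 steps. Relative viability is the nuclei count of treated wells divided by that of vehicle wells, and values are medians of duplicate plates.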

COR-L23 = system: COR-L23
Method in brief: as §1

HARA = system: HARA
Method in brief: as §1

HCC-15 = system: HCC-15
Method in brief: as §1

HOP-62 = system: HOP-62
Method in brief: as §1

NCI-H1355 = system: NCI-H1355
Method in brief: as §1

NCI-H1395 = system: NCI-H1395
Method in brief: as §1

NCI-H1734 = system: NCI-H1734
Method in brief: as §1

NCI-H1755 = system: NCI-H1755
Method in brief: as §1

NCI-H1792 = system: NCI-H1792
Method in brief: as §1

NCI-H1793 = system: NCI-H1793
Method in brief: as §1

NCI-H1993 = system: NCI-H1993
Method in brief: as §1

NCI-H2009 = system: NCI-H2009
Method in brief: as §1

NCI-H2170 = system: NCI-H2170
Method in brief: as §1

NCI-H2228 = system: NCI-H2228
Method in brief: as §1

NCI-H2347 = system: NCI-H2347
Method in brief: as §1

NCI-H358 = system: NCI-H358
Method in brief: as §1

NCI-H522 = system: NCI-H522
Method in brief: as §1

NCI-H647 = system: NCI-H647
Method in brief: as §1

NCI-H838 = system: NCI-H838
Method in brief: as §1

SK-MES-1 = system: SK-MES-1
Method in brief: as §1

UMC-11 = system: UMC-11
Method in brief: as §1

## CC(=O)O[C@@]12CO[C@@H]1C[C@H](O)[C@@]1(C)C(=O)[C@H](O)C3=C(C)[C@@H](OC(=O)[C@H](O)[C@@H](NC(=O)OC(C)(C)C)c4ccccc4)C[C@@](O)([C@@H](OC(=O)c4ccccc4)[C@H]21)C3(C)C [Docetaxel] + Nc1nc2[nH]cc(CCc3ccc(C(=O)N[C@@H](CCC(=O)O)C(=O)O)cc3)c2c(=O)[nH]1 [Pemetrexed] (partner 0.2 µM)
COR-L 105; first compound 0.0002 µM
  relative viability: 1.06
COR-L 105; first compound 0.000632 µM
  relative viability: 1.12
COR-L 105; first compound 0.002 µM
  relative viability: 0.656
COR-L 105; first compound 0.006325 µM
  relative viability: 0.492
COR-L 105; first compound 0.02 µM
  relative viability: 0.388
COR-L23; first compound 0.0002 µM
  relative viability: 0.189
COR-L23; first compound 0.000632 µM
  relative viability: 0.184
COR-L23; first compound 0.002 µM
  relative viability: 0.186
COR-L23; first compound 0.006325 µM
  relative viability: 0.167
HARA; first compound 0.0002 µM
  relative viability: 0.196
HARA; first compound 0.000632 µM
  relative viability: 0.247
HARA; first compound 0.002 µM
  relative viability: 0.247
HARA; first compound 0.006325 µM
  relative viability: 0.188
HARA; first compound 0.02 µM
  relative viability: 0.142
HCC-15; first compound 0.0002 µM
  relative viability: 0.235
HCC-15; first compound 0.000632 µM
  relative viability: 0.242
HCC-15; first compound 0.002 µM
  relative viability: 0.262
HCC-15; first compound 0.006325 µM
  relative viability: 0.273
HCC-15; first compound 0.02 µM
  relative viability: 0.181
HOP-62; first compound 0.0002 µM
  relative viability: 0.324
HOP-62; first compound 0.000632 µM
  relative viability: 0.362
HOP-62; first compound 0.002 µM
  relative viability: 0.304
NCI-H1355; first compound 0.0002 µM
  relative viability: 1.09
NCI-H1355; first compound 0.000632 µM
  relative viability: 0.958
NCI-H1355; first compound 0.002 µM
  relative viability: 0.789
NCI-H1355; first compound 0.006325 µM
  relative viability: 0.309
NCI-H1355; first compound 0.02 µM
  relative viability: 0.198
NCI-H1395; first compound 0.0002 µM
  relative viability: 0.814
NCI-H1395; first compound 0.000632 µM
  relative viability: 0.706
NCI-H1395; first compound 0.002 µM
  relative viability: 0.652
NCI-H1395; first compound 0.006325 µM
  relative viability: 0.342
NCI-H1395; first compound 0.02 µM
  relative viability: 0.246
NCI-H1734; first compound 0.0002 µM
  relative viability: 0.425
NCI-H1734; first compound 0.000632 µM
  relative viability: 0.521
NCI-H1734; first compound 0.002 µM
  relative viability: 0.405
NCI-H1734; first compound 0.006325 µM
  relative viability: 0.303
NCI-H1734; first compound 0.02 µM
  relative viability: 0.239
NCI-H1755; first compound 0.0002 µM
  relative viability: 0.545
NCI-H1755; first compound 0.000632 µM
  relative viability: 0.438
NCI-H1755; first compound 0.002 µM
  relative viability: 0.453
NCI-H1755; first compound 0.006325 µM
  relative viability: 0.367
NCI-H1755; first compound 0.02 µM
  relative viability: 0.332
NCI-H1792; first compound 0.0002 µM
  relative viability: 0.764
NCI-H1792; first compound 0.000632 µM
  relative viability: 0.533
NCI-H1792; first compound 0.002 µM
  relative viability: 0.223
NCI-H1792; first compound 0.006325 µM
  relative viability: 0.105
NCI-H1792; first compound 0.02 µM
  relative viability: 0.0705
NCI-H1793; first compound 0.0002 µM
  relative viability: 0.842
NCI-H1793; first compound 0.000632 µM
  relative viability: 0.603
NCI-H1793; first compound 0.002 µM
  relative viability: 0.251
NCI-H1793; first compound 0.006325 µM
  relative viability: 0.271
NCI-H1793; first compound 0.02 µM
  relative viability: 0.188
NCI-H1993; first compound 0.0002 µM
  relative viability: 0.641
NCI-H1993; first compound 0.000632 µM
  relative viability: 0.762
NCI-H1993; first compound 0.002 µM
  relative viability: 0.64
NCI-H1993; first compound 0.006325 µM
  relative viability: 0.444
NCI-H1993; first compound 0.02 µM
  relative viability: 0.391
NCI-H2009; first compound 0.0002 µM
  relative viability: 0.946
NCI-H2009; first compound 0.000632 µM
  relative viability: 1.03
NCI-H2009; first compound 0.002 µM
  relative viability: 0.956
NCI-H2009; first compound 0.006325 µM
  relative viability: 0.733
NCI-H2009; first compound 0.02 µM
  relative viability: 0.27
NCI-H2170; first compound 0.0002 µM
  relative viability: 0.26
NCI-H2170; first compound 0.000632 µM
  relative viability: 0.257
NCI-H2170; first compound 0.002 µM
  relative viability: 0.251
NCI-H2170; first compound 0.006325 µM
  relative viability: 0.177
NCI-H2170; first compound 0.02 µM
  relative viability: 0.174
NCI-H2228; first compound 0.0002 µM
  relative viability: 0.319
NCI-H2228; first compound 0.000632 µM
  relative viability: 0.228
NCI-H2228; first compound 0.002 µM
  relative viability: 0.154
NCI-H2228; first compound 0.006325 µM
  relative viability: 0.146
NCI-H2228; first compound 0.02 µM
  relative viability: 0.11
NCI-H2347; first compound 0.0002 µM
  relative viability: 0.422
NCI-H2347; first compound 0.000632 µM
  relative viability: 0.446
NCI-H2347; first compound 0.002 µM
  relative viability: 0.419
NCI-H2347; first compound 0.006325 µM
  relative viability: 0.429
NCI-H2347; first compound 0.02 µM
  relative viability: 0.357
NCI-H358; first compound 0.0002 µM
  relative viability: 0.16
NCI-H358; first compound 0.000632 µM
  relative viability: 0.172
NCI-H358; first compound 0.002 µM
  relative viability: 0.164
NCI-H358; first compound 0.006325 µM
  relative viability: 0.155
NCI-H358; first compound 0.02 µM
  relative viability: 0.117
NCI-H522; first compound 0.0002 µM
  relative viability: 1.06
NCI-H522; first compound 0.000632 µM
  relative viability: 0.814
NCI-H522; first compound 0.002 µM
  relative viability: 0.737
NCI-H522; first compound 0.006325 µM
  relative viability: 0.636
NCI-H522; first compound 0.02 µM
  relative viability: 0.355
NCI-H647; first compound 0.0002 µM
  relative viability: 0.175
NCI-H647; first compound 0.000632 µM
  relative viability: 0.142
NCI-H647; first compound 0.002 µM
  relative viability: 0.103
NCI-H647; first compound 0.006325 µM
  relative viability: 0.122
NCI-H647; first compound 0.02 µM
  relative viability: 0.0856
NCI-H838; first compound 0.0002 µM
  relative viability: 0.247
NCI-H838; first compound 0.000632 µM
  relative viability: 0.27
NCI-H838; first compound 0.002 µM
  relative viability: 0.22
NCI-H838; first compound 0.006325 µM
  relative viability: 0.157
NCI-H838; first compound 0.02 µM
  relative viability: 0.134
SK-MES-1; first compound 0.0002 µM
  relative viability: 0.971
SK-MES-1; first compound 0.000632 µM
  relative viability: 0.907
SK-MES-1; first compound 0.002 µM
  relative viability: 0.499
SK-MES-1; first compound 0.006325 µM
  relative viability: 0.341
SK-MES-1; first compound 0.02 µM
  relative viability: 0.197
UMC-11; first compound 0.0002 µM
  relative viability: 0.717
UMC-11; first compound 0.000632 µM
  relative viability: 0.698
UMC-11; first compound 0.002 µM
  relative viability: 0.325
UMC-11; first compound 0.006325 µM
  relative viability: 0.256
UMC-11; first compound 0.02 µM
  relative viability: 0.195
